Source: patent US20050197356A1, “Non-immunosuppressive immunophilin ligands as neuroprotective and/or neuroregenerative agents” (Wyeth, priority 2004, published 2005)

How the values were obtained:
Type in all cases: cell-based, rat
[1] = system: cultured dopaminergic neurons; assay: High-affinity 3H-dopamine uptake after MPP+ induced toxicity in mesencephalic dopaminergic neuron cultures
Description: Mesencephalic dopaminergic neuron cultures were prepared as previously described in Pong et al., J Neurochem. 69: 986-994 (1997). Embryonic day 15 (E15) rat fetuses were collected and dissected in ice-cold phosphate-buffered saline (PBS). The ventral piece of tissue compromising the mesencephalic dopaminergic region was dissected out. Dissected pieces of tissue were pooled together and transferred to an enzymatic dissociation medium containing 20 IU/ml papain in Earle's balanced salt solution (Worthington Biochemical, Freehold, N.J., U.S.A.) and incubated for 60 minutes at 37° C. After enzymatic dissociation, the papain solution was aspirated and the tissue mechanically triturated with a fire-polished glass Pasteur pipette in complete medium [equal volumes of minimum essential medium (MEM) and F-12 nutrient mixture (Gibco BRL) supplemented with 0.1 mg/ml apotransferrin and 2.5 μg/ml insulin] containing 2,000 IU/ml DNase and 10 mg/ml ovomucoid protease inhibitor.
For dopamine uptake experiments, single-cell suspensions in complete media were seeded on poly-L-ornithine and laminin coated 24-well plates. The cultures were maintained for seven days prior to experimentation. Cultures were pretreated with various concentrations of the compound of formula (I) (washed with PBS and diluted with media to concentrations of 1 nM to 1000 nM) for 24 hours, then exposed to 10 μM the neurotoxin 1-methyl-4-phenylpyridinium (MPP^+) for 1 hour to assess the neuroprotective effect of the compound of formula (I) in cell culture. Following the 1 hour incubation, media was exchanged three times and fresh compound was added for an additional 48 hours.
More particularly, after 48 hours growth of mesencephalic dopaminergic neuron cultures following MPP^+ exposure, high-affinity ^3H-dopamine uptake was performed using a modified method described by Prochiantz et al., Nature 293: 570-572 (1981). Cultures were washed with pre-warmed phosphate-buffered saline (PBS) containing 5.6 mM glucose and 1 mM ascorbic acid. Cultures were then incubated for 15 minutes at 37° C. with 50 nM ^3H-dopamine (31 Ci/mmol, Du Pont-NEN, Wilmington, Del., U.S.A.). The cultures were washed twice with buffer and lysed with 0.5 N NaOH. The lysate was transferred to a scintillation vial containing Ultima Gold scintillation cocktail and radioactivity was determined with a liquid scintillation counter. Alternatively, culture lysates can be washed twice with buffer, incubated for 2 hours at room temperature with Optiphase Supermix scintillation cocktail (Wallac Scintillation Products, Gaithersburg, Md., USA), and radioactivity measured with a liquid scintillation counter.
MPP^+-induced neurotoxicity in a ^3H-dopamine uptake cell assay was measured. Neuroprotective effects in cell culture were measured by addition of the compound (1 nM to 1000 nM) to the culture in the presence of MPP.

[2] = system: cultured cortical neurons; assay: Neurofilament content in cultured cortical neurons (neurofilament antibody, colorimetric); conditions: 72 hours
Description: (§1) Dissociated cortical neuron cultures were prepared as previously described [Pong et al., Exp Neurol. 2001 September; 171(1):84-97 (2001)]. Briefly, embryonic day 15 rat fetuses were collected and dissected in ice-cold PBS. Dissected cortices were pooled together and transferred to an enzymatic dissociation medium containing papain. After 30 min, the tissue was mechanically triturated with a fire-polished glass Pasteur pipette. Single-cell suspensions in complete media were seeded on poly-L-ornithine and laminin coated 96-well plates. 24 hours later, cultures were treated with various concentrations of compound of formula (I) for 72 hours. The cultures were then fixed and stained with a neurofilament primary antibody and a peroxidase-tagged secondary antibody. A peroxidase substrate (K-Blue Max) was added and the colorimetric change was measure on a colorimetric plate reader.
as §1, with “(Pong” for “[Pong”, “2001).” for “Exp Neurol. 2001 September; 171(1):84-97 (2001)].”, “ploy-L-ornithine” for “poly-L-ornithine”, “compound” for “compound of formula (I)”, “calorimetric” for “colorimetric”

[3] = system: cultured dorsal root ganglia; assay: Neurite outgrowth (ENO algorithm, Cellomics ArrayScan) in cultured dorsal root ganglia; conditions: 72 hours
Description: Dissociated dorsal root ganglia cultures were prepared as previously described [A. Wood et al., “Stimulation of neurite outgrowth by immunophilin ligands: quantitative analysis by Cellomics Array scan” Society for Neuroscience (2004), abstract 104.3] Briefly, postnatal day 3-5 rat pups were euthanized. The spinal columns were removed and individual dorsal root ganglia (DRG) were dissected out. Dissected DRG were pooled together and transferred to an enzymatic dissociation medium containing papain. After 60 minutes, the tissue was mechanically triturated with a fire-polished glass Pasteur pipette. Single-cell suspensions in complete media were seeded on poly-L-ornithine and laminin coated 96-well plates. After 24 hours, cultures were treated with various concentrations of the compound of formula I for 72 hours. The cultures were then fixed and stained with an anti-tubulin primary antibody (TUJ-1) and a fluorescent-tagged secondary antibody. Neurite outgrowth was determined by using the Enhanced Neurite Outgrowth (ENO) algorithm with the Cellomics ArrayScan and expressed as total neurite length per cell.

[4] = system: cultured cortical neurons; assay: Neurite outgrowth (ENO algorithm, Cellomics ArrayScan) in cultured cortical neurons; conditions: 72 hours
Description: Dissociated cortical neuron cultures were prepared as previously described (Pong et al., cited above, 2001). Briefly, embryonic day 15 rat fetuses were collected and dissected in ice-cold PBS. Dissected cortices were pooled together and transferred to an enzymatic dissociation medium containing papain. After 30 minutes, the tissue was mechanically triturated with a fire-polished glass Pasteur pipette. Single-cell suspensions in complete media were seeded on poly-L-ornithine and laminin coated 96-well plates. After 24 hours, cultures were treated with various concentrations of the compound of formula I for 72 hours. The cultures were then fixed and stained with an anti-tubulin primary antibody (TUJ-1) and a fluorescent-tagged secondary antibody. Neurite outgrowth was determined by using the Enhanced Neurite Outgrowth (ENO) algorithm with the Cellomics ArrayScan and expressed as total neurite length per cell.

C[n+]1ccc(-c2ccccc2)cc1 [MPP^+, 1-methyl-4-phenylpyridinium, reference compound]
3H-DOPAMINE UPTAKE (% UNTREATED CONTROL) ([1]; 10 uM MPP+ alone, 1 hour exposure, uptake 48 hours later): 40%

CC/C1=C\CC(/C(C)=C/C(C)C(C)O)OC(=O)C2CCCCN2C(=O)C(=O)C2(O)OC(CCC2C)CC(O)C(C)C(O)CC(O)CC(O)/C(C)=C/C(C)CC(C)C1O (centres unmarked) [meridamycin]
NEUROFILAMENT CONTENT (FOLD-INCREASE ABOVE UNTREATED CONTROL) ([2]; 10 nM meridamycin): 1.71 fold | NEUROFILAMENT CONTENT (FOLD-INCREASE ABOVE UNTREATED CONTROL) ([2]; 100 nM meridamycin): 2.24 fold | NEUROFILAMENT CONTENT (FOLD-INCREASE ABOVE UNTREATED CONTROL) ([2]; 1 μM meridamycin): 2.32 fold | NEUROFILAMENT CONTENT (FOLD-INCREASE ABOVE UNTREATED CONTROL) ([2]; 10 μM meridamycin): 2.56 fold | EC50 ([2]; Rattus norvegicus, Cortical neurone, cultured cortical neurons, read-out: EC50 of increased neuronal survival (neurofilament content)): 12 nM | Total Neurite Length (% Above Control) ([3]; 10 nM): 4% | Total Neurite Length (% Above Control) ([3]; 100 nM): 9% | Total Neurite Length (% Above Control) ([3]; 1 μM): 14% | Total Neurite Length (% Above Control) ([3]; 10 μM): 24% | Total Neurite Length (% Above Control) ([4]; 10 nM): 19% | Total Neurite Length (% Above Control) ([4]; 100 nM): 40% | Total Neurite Length (% Above Control) ([4]; 1 μM): 113% | Total Neurite Length (% Above Control) ([4]; 10 μM): 152% | 3H-DOPAMINE UPTAKE (% UNTREATED CONTROL) ([1]; 1 nM meridamycin, 24 h pretreatment, 10 uM MPP+ 1 h, compound further 48 h): 47% | 3H-DOPAMINE UPTAKE (% UNTREATED CONTROL) ([1]; 10 nM meridamycin, 24 h pretreatment, 10 uM MPP+ 1 h, compound further 48 h): 51% | 3H-DOPAMINE UPTAKE (% UNTREATED CONTROL) ([1]; 100 nM meridamycin, 24 h pretreatment, 10 uM MPP+ 1 h, compound further 48 h): 51% | 3H-DOPAMINE UPTAKE (% UNTREATED CONTROL) ([1]; 1000 Nm meridamycin, 24 h pretreatment, 10 uM MPP+ 1 h, compound further 48 h): 64% | EC50 ([1]; Rattus norvegicus, Neuron, relative to maximum protection (84% uptake) afforded by 10 ng/mL GDNF, read-out: EC50 of neuroprotection against MPP+-induced neurotoxicity): 555 nM

B1: GDNF: GDNF, 10 ng/mL, positive control that afforded maximum protection (protein, UniProt P39905 78-211, looked up)
Glial cell line-derived …: SPDKQMAVLPRRERNRQAAAANPENSRGKGRRGQRGKNRGCVLTAIHLNVTDLGLGYETKEELIFRYCSGSCDAAETTYDKILKNLSRNRRLVSDKVGQACCRPIAFDDDLSFLDDNLVYHILRKHSAKRCGCI
maximum protection (3H-dopamine uptake) ([1]; 10 ng/mL GDNF, MPP+-induced neurotoxicity): 84%
